According to patent publication US12629410B2, “Multi-antigenic peptide mimics of gonococcal lipo-oligosaccharide (LOS) epitopes” (priority 2019, dated 2026):
“Also recorded” adds a separate entry of the source. Bridges are numbered along the chain shown (N, C = ends).

What was measured:
[1] = system: N. gonorrhoeae strain FA1090; assay: Mouse vaginal colonization model (protection experiment); assay type: in vivo; conditions: BALB/c n=14/group; TMCP2 50 μg + GLA-SE, 3 doses 2 weeks apart
Description: Use of animals in this study was performed in strict accordance with the recommendations in the Guide for the Care and Use of Laboratory Animals of the National Institutes of Health. The protocol was approved by the Institutional Animal Care and Use Committee (IACUC) at the University of Massachusetts Medical School. The BALB/c mouse model of vaginal colonization described by Jerse was used (25). Two weeks after the last immunization, mice in the diestrus phase of the estrous cycle were started on treatment (that day) with 0.1 mg PREMARIN® (Pfizer; a mixture of sodium estrone sulfate and sodium equilin sulfate also containing sodium sulfate conjugates of 17α-dihydroequilin, 17α-estradiol and 17β-dihydroequilin) in 200 μl of water, given subcutaneously on each of three days; −2, 0 and +2 days (before, the day of and after gonococcal inoculation) to prolong the estrus phase of the reproductive cycle and promote susceptibility to N. gonorrhoeae infection. […]
Experiments that compared clearance of N. gonorrhoeae in independent groups of mice estimated and tested three characteristics of the data (13): 1) time to clearance; 2) longitudinal trends in mean log10 CFU; 3) and the cumulative CFU as area under the curve (AUC). […] A quadratic or cubic function in time was determined to provide the best fit; random slopes were linear in time. […]

[2] = system: 15253 ΔlgtG LOS; assay: ELISA of immune sera against 2C7-negative LOS (specificity); assay type: in vivo, N. gonorrhoeae; conditions: sera of mice immunized with TMCP2 + GLA-SE
Description: Microtiter wells were coated with LOS purified from 15253 or 15253 ΔlgtG (80 μg/ml) in PBS as described previously. Serial dilutions of immune sera were dispensed into wells and bound anti-LOS Ab was disclosed with anti-mouse IgG conjugated to alkaline phosphatase. A standard curve for mouse IgG was generated by coating wells with anti-mouse IgG (Sigma) and pure mouse IgG (Sigma) also as described previously.

[(CH2-CO-GPIPVLDENGLFAPGPC)-K-OH]4 ({CH2CO}-GPIPVLDENGLFAPGPCK-OH; thioether N-17; also: tetrameric MAP) [TMCP2]
gonococcal colonization, biweekly schedule [1]: effectively attenuated gonococcal colonization | IgG reactivity of immune sera with 15253 ΔlgtG LOS [2]: non-reactivity; also recorded: no IgG binding
